Test system: Pseudomonas sp. CBR-F
Assay: Fluorescent response of living Pseudomonas sp. CBR-F cultures to perfluoroalkyl substances
Assay type: cell-based
Details: excitation 425 nm; for fluorescent response of Pseudomonas sp. CBR-F: R2A medium, 96 well plate, 12-16 hours at 30° C.; for fluorescent response of Pseudomonas sp. CBR-F / form of the fluorescence response versus concentration: emission 475 nm; for form of the fluorescence response versus concentration: log of concentration plotted against the measured fluorescence; for limit of detection: ppb (micrograms/liter), fluorescence at 475 nm
Procedure: To perform an assay, CBR-F was inoculated into medium containing Reasoner's 2A medium (R2A) diluted from a 2× stock with the test sample in a 96 well plate. Internal standards using PFOA are run each time as a calibration curve. Following incubation for a number of hours (for example, 12-16 hours at 30° C.), fluorescence was measured at 475 nm with an excitation of 425 nm after the cultures have grown with shaking at 150 rpm for 15 hours using a 96 well plate reader with fluorescent capabilities. The log of PFOA concentration is plotted against the measured fluorescence, and a linear trend is calculated. The trendline formula is used to calculate PFOA/PFOS concentrations in the sample.

SMILES | fluorescent response of Pseudomonas sp. CBR-F | form of the fluorescence response versus concentration | limit of detection [ppb]
O=C(O)C(F)(F)C(F)(F)C(F)(F)C(F)(F)C(F)(F)C(F)(F)C(F)(F)F [PFOA, perfluorooctanoic acid] | produces fluorescence | linear relative to the log | 50
O=S(=O)(O)C(F)(F)C(F)(F)C(F)(F)C(F)(F)C(F)(F)C(F)(F)C(F)(F)C(F)(F)F [PFOS, perfluorooctanesulfonic acid] | produces fluorescence | linear relative to the log | 50
